Assay results taken from patent US5945508A, “Substance P treatment for immunostimulation” (priority 1997, dated 1999).

Key:
[1] = test system: immune system organs; assay: Organ weight and total cell recovery; type: in vivo, C57B16 mice; parameters: Spleen Cell Number / Thymus Cell Number / LN Cell Number / BM Cell Number: scale not given here; Spleen Weight / Thymus Weight: unit not given here
Method: (§1) At 24 hours after the last exposure, the animals were sacrificed and the effects of exposure on the immune system examined. Immune organs (spleen, thymus, blood, lymph nodes and bone marrow) were recovered and analyzed for effects on organ weight, total cell numbers, immune cell populations (by differentials), and lymphocyte subpopulations (by flow cytometry). Assays were also performed to examine the effects of exposure on immune function. […] Similar effects on immune cell subpopulations were also observed in lymph nodes. In the thymus it appeared that the immature CD4^+ CD8^+ cells were differentially lost due to exposure. […] However, these effects are prevented or ameliorated by treatment of the animals with Substance P.
For each of the immune system organs (spleen, lymph nodes and thymus) the wet weight is determined after removal using a microbalance. After processing of the organs into single cell suspensions the cell numbers and viabilities are determined using trypan blue staining. Histochemical differentials are performed at this time. Cell numbers and viabilities are again determined after centrifugation of the cell suspensions through density gradients to obtain mononuclear cells.

[2] = test system: lymphocyte subpopulations; assay: Flow cytometric analyses (FACS); type: in vivo, C57B16 mice
Method: as §1
One- and two-color FACS analyses are performed using a Becton-Dickinson FACStar Plus flow cytometer. Cells are stained with the indicated monoclonal antibodies according to standard procedures (Harris et al., id). Cells alone and cells reacted with conjugated isotype control, irrelevant mAbs are used as controls. Data is presented as the percentage of cells staining positive for each individual mAb.

[3] = JP-8 1000 mg/m^3 + SP, nSP (1 nM), CP or RP

COc1ccccc1CN[C@H]1C2CCN(CC2)[C@H]1C(c1ccccc1)c1ccccc1 [CP, reference compound]
BM Cell Number [1, 3]: 22 | LN Cell Number [1, 3]: 7.1 | Spleen Cell Number [1, 3]: 7 | Spleen Weight [1, 3]: 0.16 | Thymus Cell Number [1, 3]: 75 | Thymus Weight [1, 3]: 0.12 | BM Cell Number ([1]; dose 0 (no JP-8) + SP or CP): 29 | LN Cell Number ([1]; dose 0 (no JP-8) + SP or CP): 9.8 | Spleen Cell Number ([1]; dose 0 (no JP-8) + SP or CP): 16 | Spleen Weight ([1]; dose 0 (no JP-8) + SP or CP): 0.12 | Thymus Cell Number ([1]; dose 0 (no JP-8) + SP or CP): 50 | Thymus Weight ([1]; dose 0 (no JP-8) + SP or CP): 0.12 | BM CD3 positive cells [2, 3]: 14% | BM CD4 positive cells [2, 3]: 7% | BM CD8 positive cells [2, 3]: 3% | BM CD45 positive cells [2, 3]: 41% | BM MAC1 positive cells [2, 3]: 26% | LN CD3 positive cells [2, 3]: 95% | LN CD4 positive cells [2, 3]: 35% | LN CD8 positive cells [2, 3]: 23% | PBL CD3 positive cells [2, 3]: 50% | PBL CD4 positive cells [2, 3]: 20% | PBL CD8 positive cells [2, 3]: 15% | PBL CD45 positive cells [2, 3]: 27% | PBL MAC1 positive cells [2, 3]: 6% | Spleen CD3 positive cells [2, 3]: 34% | Spleen CD4 positive cells [2, 3]: 16% | Spleen CD8 positive cells [2, 3]: 9% | Spleen CD45 positive cells [2, 3]: 26% | Spleen MAC1 positive cells [2, 3]: 10% | Thymus CD3 positive cells [2, 3]: 17% | Thymus DN cells [2, 3]: 12% | Thymus DP cells [2, 3]: 65% | Thymus SP4 cells [2, 3]: 17% | Thymus SP8 cells [2, 3]: 7% | BM CD3 positive cells ([2]; dose 0 (no JP-8) + SP or CP): 16% | BM CD4 positive cells ([2]; dose 0 (no JP-8) + SP or CP): 9% | BM CD8 positive cells ([2]; dose 0 (no JP-8) + SP or CP): 7% | BM CD45 positive cells ([2]; dose 0 (no JP-8) + SP or CP): 27% | BM MAC1 positive cells ([2]; dose 0 (no JP-8) + SP or CP): 33% | LN CD3 positive cells ([2]; dose 0 (no JP-8) + SP or CP): 49% | LN CD4 positive cells ([2]; dose 0 (no JP-8) + SP or CP): 25% | LN CD8 positive cells ([2]; dose 0 (no JP-8) + SP or CP): 12% | LN CD45 positive cells ([2]; dose 0 (no JP-8) + SP or CP): 15% | LN MAC1 positive cells ([2]; dose 0 (no JP-8) + SP or CP): 1% | PBL CD3 positive cells ([2]; dose 0 (no JP-8) + SP or CP): 72% | PBL CD4 positive cells ([2]; dose 0 (no JP-8) + SP or CP): 29% | PBL CD8 positive cells ([2]; dose 0 (no JP-8) + SP or CP): 13% | PBL CD45 positive cells ([2]; dose 0 (no JP-8) + SP or CP): 12% | PBL MAC1 positive cells ([2]; dose 0 (no JP-8) + SP or CP): 7% | Spleen CD3 positive cells ([2]; dose 0 (no JP-8) + SP or CP): 32% | Spleen CD4 positive cells ([2]; dose 0 (no JP-8) + SP or CP): 21% | Spleen CD8 positive cells ([2]; dose 0 (no JP-8) + SP or CP): 7% | Spleen CD45 positive cells ([2]; dose 0 (no JP-8) + SP or CP): 24% | Spleen MAC1 positive cells ([2]; dose 0 (no JP-8) + SP or CP): 3% | Thymus CD3 positive cells ([2]; dose 0 (no JP-8) + SP or CP): 18% | Thymus DN cells ([2]; dose 0 (no JP-8) + SP or CP): 13% | Thymus DP cells ([2]; dose 0 (no JP-8) + SP or CP): 75% | Thymus SP4 cells ([2]; dose 0 (no JP-8) + SP or CP): 12% | Thymus SP8 cells ([2]; dose 0 (no JP-8) + SP or CP): 3%

COc1ccccc1CC(=N)N1C[C@@H]2C(=O)CCC(c3ccccc3)(c3ccccc3)[C@@H]2C1 [RP, reference compound]
BM Cell Number [1, 3]: 27 | LN Cell Number [1, 3]: 6.8 | Spleen Cell Number [1, 3]: 37 | Spleen Weight [1, 3]: 0.10 | Thymus Cell Number [1, 3]: 72 | Thymus Weight [1, 3]: 0.03 | BM CD3 positive cells [2, 3]: 12% | BM CD4 positive cells [2, 3]: 6% | BM CD8 positive cells [2, 3]: 5% | BM CD45 positive cells [2, 3]: 42% | BM MAC1 positive cells [2, 3]: 10% | LN CD3 positive cells [2, 3]: 96% | LN CD4 positive cells [2, 3]: 41% | LN CD8 positive cells [2, 3]: 29% | LN CD45 positive cells [2, 3]: 18% | LN MAC1 positive cells [2, 3]: 1% | PBL CD3 positive cells [2, 3]: 71% | PBL CD4 positive cells [2, 3]: 18% | PBL CD8 positive cells [2, 3]: 10% | PBL CD45 positive cells [2, 3]: 38% | PBL MAC1 positive cells [2, 3]: 9% | Spleen CD3 positive cells [2, 3]: 47% | Spleen CD4 positive cells [2, 3]: 16% | Spleen CD8 positive cells [2, 3]: 5% | Spleen CD45 positive cells [2, 3]: 39% | Spleen MAC1 positive cells [2, 3]: 1% | Thymus CD3 positive cells [2, 3]: 16% | Thymus DN cells [2, 3]: 10% | Thymus DP cells [2, 3]: 70% | Thymus SP4 cells [2, 3]: 12% | Thymus SP8 cells [2, 3]: 8%

nSP: 1 nanomolar substance P
BM Cell Number [1, 3]: 31 | LN Cell Number [1, 3]: 10.8 | Spleen Cell Number [1, 3]: 58 | Spleen Weight [1, 3]: 0.11 | Thymus Cell Number [1, 3]: 78 | Thymus Weight [1, 3]: 0.04 | BM CD3 positive cells [2, 3]: 13% | BM CD4 positive cells [2, 3]: 10% | BM CD8 positive cells [2, 3]: 3% | BM CD45 positive cells [2, 3]: 43% | BM MAC1 positive cells [2, 3]: 16% | LN CD3 positive cells [2, 3]: 95% | LN CD4 positive cells [2, 3]: 42% | LN CD8 positive cells [2, 3]: 25% | LN CD45 positive cells [2, 3]: 23% | LN MAC1 positive cells [2, 3]: 0% | PBL CD3 positive cells [2, 3]: 78% | PBL CD4 positive cells [2, 3]: 25% | PBL CD8 positive cells [2, 3]: 8% | PBL CD45 positive cells [2, 3]: 29% | PBL MAC1 positive cells [2, 3]: 2% | Spleen CD3 positive cells [2, 3]: 60% | Spleen CD4 positive cells [2, 3]: 15% | Spleen CD8 positive cells [2, 3]: 5% | Spleen CD45 positive cells [2, 3]: 41% | Spleen MAC1 positive cells [2, 3]: 1% | Thymus CD3 positive cells [2, 3]: 25% | Thymus DN cells [2, 3]: 7% | Thymus DP cells [2, 3]: 69% | Thymus SP4 cells [2, 3]: 16% | Thymus SP8 cells [2, 3]: 7%
